≈ marks a conversion by molar mass, not a printed value.
Experiments:
[1] = tested on: P388; assay: Cytotoxicity against mouse P388 cells; type: functional, cell-based
[2] = tested on: A549; assay: Cytotoxicity against human A549 cells; type: functional, cell-based

| Compound | IC50 [1] [µg/mL] | IC50 [2] [µg/mL] |
| --- | --- | --- |
| C=CC(C)(O)/C=C/C=C(\C)CC/C=C(\C)CC(=O)C=C(C)C (stereo unspecified) [STYXENOL A] | 5 (≈ 16.5 µM) | 6.1 (≈ 20.2 µM) |
| CC1=CC[C@@]2(C)CC[C@@]3(C)[C@H](O)C=C(C(C)C)[C@H]3C2CC1 (stereo partly specified) | 11.2 (≈ 38.8 µM) | 4 (≈ 13.9 µM) |
| CC(=O)O[C@@H]1C[C@]2(C)C[C@@H]3O[C@]3(C)CCC2[C@@H]2C(C(C)C)=CC[C@]12C (stereo partly specified) | 5.6 (≈ 16.2 µM) | 7 (≈ 20.2 µM) |
